Measurements reported in ChEMBL document CHEMBL5291721, “A preclinical secondary pharmacology resource illuminates target-adverse drug reaction associations of marketed drugs” (Nat Commun, 2023).

Key:
[1] = molecular target: T1, Alpha-1A adrenergic receptor (Homo sapiens, UniProt P35348); type: functional, cell-based
T1 sequence (P35348 whole entry): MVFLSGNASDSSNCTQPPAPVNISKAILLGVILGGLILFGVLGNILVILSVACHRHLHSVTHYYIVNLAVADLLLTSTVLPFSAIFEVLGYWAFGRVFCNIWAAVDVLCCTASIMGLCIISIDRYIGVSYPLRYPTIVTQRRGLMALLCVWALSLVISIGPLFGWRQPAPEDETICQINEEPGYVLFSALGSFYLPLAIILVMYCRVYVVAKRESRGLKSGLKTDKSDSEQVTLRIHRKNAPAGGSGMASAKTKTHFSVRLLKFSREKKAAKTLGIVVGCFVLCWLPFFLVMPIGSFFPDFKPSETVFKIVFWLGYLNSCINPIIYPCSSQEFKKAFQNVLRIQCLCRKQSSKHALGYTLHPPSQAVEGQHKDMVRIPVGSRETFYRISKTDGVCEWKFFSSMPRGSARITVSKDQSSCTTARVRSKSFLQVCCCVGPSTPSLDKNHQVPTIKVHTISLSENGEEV

[2] = molecular target: Beta-1 adrenergic receptor (Homo sapiens, UniProt P08588); type: functional
[3] = molecular target: D(1A) dopamine receptor (Homo sapiens, UniProt P21728); type: functional, cell-based
[4] = molecular target: Histamine H3 receptor (Homo sapiens, UniProt Q9Y5N1)
[5] = molecular target: Voltage-dependent L-type calcium channel subunit alpha-1C (Rattus norvegicus, UniProt P22002); type: functional
[6] = molecular target: T2, Progesterone receptor (Homo sapiens, UniProt P06401); type: functional
T2 sequence (P06401 whole entry): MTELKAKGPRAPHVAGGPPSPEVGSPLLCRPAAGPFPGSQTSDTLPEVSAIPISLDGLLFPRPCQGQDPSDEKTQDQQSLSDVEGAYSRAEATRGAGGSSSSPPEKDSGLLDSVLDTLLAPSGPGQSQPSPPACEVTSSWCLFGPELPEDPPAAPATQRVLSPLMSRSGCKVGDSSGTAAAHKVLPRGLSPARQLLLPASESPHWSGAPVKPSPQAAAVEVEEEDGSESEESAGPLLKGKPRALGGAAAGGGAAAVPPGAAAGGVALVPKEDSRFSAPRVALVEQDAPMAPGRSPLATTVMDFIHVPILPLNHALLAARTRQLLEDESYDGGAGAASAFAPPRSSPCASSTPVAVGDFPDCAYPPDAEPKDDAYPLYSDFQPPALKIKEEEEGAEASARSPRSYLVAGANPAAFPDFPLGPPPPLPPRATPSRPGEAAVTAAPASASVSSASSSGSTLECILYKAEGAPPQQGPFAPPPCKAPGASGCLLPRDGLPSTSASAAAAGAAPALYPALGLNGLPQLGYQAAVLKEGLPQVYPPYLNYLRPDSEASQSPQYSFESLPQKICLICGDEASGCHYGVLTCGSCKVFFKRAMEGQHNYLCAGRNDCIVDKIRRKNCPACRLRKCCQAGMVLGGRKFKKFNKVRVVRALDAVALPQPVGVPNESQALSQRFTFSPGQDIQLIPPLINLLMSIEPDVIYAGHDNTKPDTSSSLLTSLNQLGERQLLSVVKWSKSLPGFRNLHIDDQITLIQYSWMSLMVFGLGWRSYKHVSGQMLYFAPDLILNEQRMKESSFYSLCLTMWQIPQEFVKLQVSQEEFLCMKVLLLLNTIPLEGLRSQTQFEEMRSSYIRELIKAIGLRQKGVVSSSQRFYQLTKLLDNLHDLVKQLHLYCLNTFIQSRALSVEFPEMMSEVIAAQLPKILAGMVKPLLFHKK
Note: assay procedure not described here.

Sequence of Voltage-dependent L-type calcium channel subunit alpha-1C (P22002 whole entry): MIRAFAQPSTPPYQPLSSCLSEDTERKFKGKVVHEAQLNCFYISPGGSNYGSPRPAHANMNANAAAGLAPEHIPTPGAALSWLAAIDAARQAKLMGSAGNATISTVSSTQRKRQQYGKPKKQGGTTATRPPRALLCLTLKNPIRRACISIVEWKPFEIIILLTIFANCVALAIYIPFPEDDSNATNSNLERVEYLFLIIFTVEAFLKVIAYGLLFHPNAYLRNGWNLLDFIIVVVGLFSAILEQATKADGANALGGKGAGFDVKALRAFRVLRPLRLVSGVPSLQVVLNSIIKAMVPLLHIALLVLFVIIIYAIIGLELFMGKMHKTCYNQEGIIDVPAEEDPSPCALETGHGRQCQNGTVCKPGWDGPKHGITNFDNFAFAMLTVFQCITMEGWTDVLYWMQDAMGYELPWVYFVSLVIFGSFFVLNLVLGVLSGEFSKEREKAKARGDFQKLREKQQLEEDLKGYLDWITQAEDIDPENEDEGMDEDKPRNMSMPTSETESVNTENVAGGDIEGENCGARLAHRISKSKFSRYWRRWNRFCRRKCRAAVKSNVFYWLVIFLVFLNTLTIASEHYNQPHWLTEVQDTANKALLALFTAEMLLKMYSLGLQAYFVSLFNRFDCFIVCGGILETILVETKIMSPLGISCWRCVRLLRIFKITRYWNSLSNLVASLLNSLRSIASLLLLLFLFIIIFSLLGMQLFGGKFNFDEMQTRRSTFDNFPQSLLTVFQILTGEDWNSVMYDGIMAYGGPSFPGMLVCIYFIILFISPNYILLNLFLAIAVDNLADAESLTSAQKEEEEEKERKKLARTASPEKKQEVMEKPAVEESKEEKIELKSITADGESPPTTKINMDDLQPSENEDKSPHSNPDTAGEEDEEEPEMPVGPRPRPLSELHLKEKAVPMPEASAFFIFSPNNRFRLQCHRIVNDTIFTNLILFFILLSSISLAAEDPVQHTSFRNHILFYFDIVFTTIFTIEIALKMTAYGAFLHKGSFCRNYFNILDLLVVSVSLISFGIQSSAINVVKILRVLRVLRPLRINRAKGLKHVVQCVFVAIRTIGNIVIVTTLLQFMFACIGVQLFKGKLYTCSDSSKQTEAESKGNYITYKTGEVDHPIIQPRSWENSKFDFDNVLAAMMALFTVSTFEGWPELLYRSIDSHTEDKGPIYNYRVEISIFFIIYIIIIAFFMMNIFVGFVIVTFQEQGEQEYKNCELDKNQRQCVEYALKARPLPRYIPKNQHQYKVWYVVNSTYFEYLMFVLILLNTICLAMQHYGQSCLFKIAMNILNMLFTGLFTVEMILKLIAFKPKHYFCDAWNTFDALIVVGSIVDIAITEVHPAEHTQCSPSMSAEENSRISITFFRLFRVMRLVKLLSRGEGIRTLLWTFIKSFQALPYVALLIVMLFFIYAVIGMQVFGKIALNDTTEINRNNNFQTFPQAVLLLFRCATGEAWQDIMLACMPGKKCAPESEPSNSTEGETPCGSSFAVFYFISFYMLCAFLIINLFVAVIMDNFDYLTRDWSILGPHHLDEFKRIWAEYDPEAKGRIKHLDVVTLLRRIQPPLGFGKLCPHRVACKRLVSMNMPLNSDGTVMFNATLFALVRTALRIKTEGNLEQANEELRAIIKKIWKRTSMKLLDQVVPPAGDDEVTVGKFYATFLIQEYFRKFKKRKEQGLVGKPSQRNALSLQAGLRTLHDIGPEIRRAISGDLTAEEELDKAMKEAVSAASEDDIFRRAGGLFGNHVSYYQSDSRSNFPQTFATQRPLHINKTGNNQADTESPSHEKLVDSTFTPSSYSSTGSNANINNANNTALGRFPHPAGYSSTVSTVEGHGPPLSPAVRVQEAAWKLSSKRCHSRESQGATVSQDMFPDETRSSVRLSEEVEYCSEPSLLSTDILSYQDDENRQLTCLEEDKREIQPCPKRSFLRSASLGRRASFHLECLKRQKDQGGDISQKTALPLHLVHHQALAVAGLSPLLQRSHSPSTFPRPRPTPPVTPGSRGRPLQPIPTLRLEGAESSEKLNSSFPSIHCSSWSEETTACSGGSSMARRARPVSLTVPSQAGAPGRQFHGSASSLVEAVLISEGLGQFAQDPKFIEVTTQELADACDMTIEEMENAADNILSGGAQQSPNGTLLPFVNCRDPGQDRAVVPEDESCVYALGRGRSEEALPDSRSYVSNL
Sequence of Histamine H3 receptor (Q9Y5N1 whole entry): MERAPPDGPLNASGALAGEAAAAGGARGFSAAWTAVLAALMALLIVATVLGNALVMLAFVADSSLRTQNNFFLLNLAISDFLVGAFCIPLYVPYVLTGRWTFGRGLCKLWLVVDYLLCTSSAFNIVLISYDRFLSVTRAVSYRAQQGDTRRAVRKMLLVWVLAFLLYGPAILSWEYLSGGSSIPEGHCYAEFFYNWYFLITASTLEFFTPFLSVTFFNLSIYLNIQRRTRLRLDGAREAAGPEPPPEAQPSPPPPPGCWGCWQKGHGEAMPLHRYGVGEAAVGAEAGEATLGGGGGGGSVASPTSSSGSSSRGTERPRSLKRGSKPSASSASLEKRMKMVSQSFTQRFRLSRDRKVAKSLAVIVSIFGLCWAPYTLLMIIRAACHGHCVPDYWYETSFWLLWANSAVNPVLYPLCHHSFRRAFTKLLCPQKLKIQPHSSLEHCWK
Sequence of Beta-1 adrenergic receptor (P08588 whole entry): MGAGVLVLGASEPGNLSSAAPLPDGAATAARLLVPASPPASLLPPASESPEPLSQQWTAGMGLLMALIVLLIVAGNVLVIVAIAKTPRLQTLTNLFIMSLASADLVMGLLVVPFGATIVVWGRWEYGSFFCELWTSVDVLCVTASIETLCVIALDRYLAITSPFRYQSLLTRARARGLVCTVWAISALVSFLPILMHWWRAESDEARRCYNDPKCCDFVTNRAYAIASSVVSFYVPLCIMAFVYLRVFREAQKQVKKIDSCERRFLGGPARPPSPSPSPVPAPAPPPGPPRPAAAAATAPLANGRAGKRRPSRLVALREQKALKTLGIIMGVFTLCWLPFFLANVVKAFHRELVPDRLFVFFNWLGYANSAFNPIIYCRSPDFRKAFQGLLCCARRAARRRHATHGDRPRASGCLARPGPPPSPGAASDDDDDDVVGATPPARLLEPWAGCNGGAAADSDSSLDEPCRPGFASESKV
Sequence of D(1A) dopamine receptor (P21728 whole entry): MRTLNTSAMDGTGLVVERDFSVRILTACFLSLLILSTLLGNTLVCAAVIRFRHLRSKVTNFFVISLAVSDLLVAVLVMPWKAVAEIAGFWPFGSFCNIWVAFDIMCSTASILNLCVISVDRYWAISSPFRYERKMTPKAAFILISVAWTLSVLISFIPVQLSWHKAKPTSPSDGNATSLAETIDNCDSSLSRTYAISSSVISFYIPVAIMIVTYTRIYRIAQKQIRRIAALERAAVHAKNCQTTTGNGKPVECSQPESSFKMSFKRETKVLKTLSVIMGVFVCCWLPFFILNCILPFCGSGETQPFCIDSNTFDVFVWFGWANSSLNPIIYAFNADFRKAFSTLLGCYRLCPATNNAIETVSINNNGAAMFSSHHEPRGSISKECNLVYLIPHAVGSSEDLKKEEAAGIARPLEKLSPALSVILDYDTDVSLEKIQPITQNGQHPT

`CNC1=Nc2ccc(Cl)cc2C(c2ccccc2)=[N+]([O-])C1` [CHLORDIAZEPOXIDE] was tested. Which AC50 [1] did it give?
Its AC50 is greater than 30 µM.

And the AC50 [2]?
Its AC50 is greater than 10 µM.

What about the AC50 [3] of the same compound?
Its AC50 is greater than 30 µM.

What about the AC50 [4] of the same compound?
Its AC50 is greater than 10 µM.

What about the AC50 [5] of the same compound?
The AC50 was greater than 10 µM.

Which AC50 [2] does the source give for `CCC[C@H](NC(=O)[C@@H]1[C@H]2CCC[C@H]2CN1C(=O)[C@@H](NC(=O)[C@@H](NC(=O)c1cnccn1)C1CCCCC1)C(C)(C)C)C(=O)C(=O)NC1CC1` here?
Its AC50 is greater than 10 µM.

And the AC50 [4]?
The AC50 was greater than 10 µM.

And the AC50 [5]?
The AC50 was greater than 10 µM.

Which AC50 [1] does the source give for `C[C@H](Cc1ccc(O)c(O)c1)[C@@H](C)Cc1ccc(O)c(O)c1` [MASOPROCOL] here?
Its AC50 is greater than 30 µM.

What about the AC50 [2] of the same compound?
The AC50 was greater than 30 µM.

What about the AC50 [3] of the same compound?
The AC50 was greater than 10 µM.

What about the AC50 [4] of the same compound?
Its AC50 is greater than 10 µM.

What about the AC50 [6] of the same compound?
The AC50 was greater than 30 µM.

What about the AC50 [5] of the same compound?
Its AC50 is greater than 10 µM.

`C[C@]12CCC(=O)C(O)=C1CC[C@@H]1[C@@H]2CC[C@]2(C)C(=O)CC[C@@H]12` [FORMESTANE] was tested. Which AC50 [1] did it give?
The AC50 was greater than 30 µM.

And the AC50 [2]?
Its AC50 is greater than 30 µM.

What about the AC50 [3] of the same compound?
Its AC50 is greater than 30 µM.

And the AC50 [4]?
The AC50 was greater than 30 µM.

And the AC50 [6]?
The AC50 was 3.7 µM.

And the AC50 [5]?
The AC50 was greater than 30 µM.

With `CC(C)(C)C(=O)OCC(=O)[C@H]1CC[C@H]2[C@@H]3CCC4=CC(=O)CC[C@]4(C)[C@H]3CC[C@]12C` [DESOXYCORTICOSTERONE PIVALATE] as the compound, how does the AC50 [1] read?
The AC50 was greater than 30 µM.

What about the AC50 [2] of the same compound?
The AC50 was greater than 10 µM.

What about the AC50 [3] of the same compound?
Its AC50 is greater than 10 µM.

What about the AC50 [4] of the same compound?
Its AC50 is greater than 10 µM.

What about the AC50 [6] of the same compound?
Its AC50 is 0.213 µM.

And the AC50 [5]?
Its AC50 is greater than 10 µM.

How did the AC50 [2] turn out when `[H]/N=C(/N)N/C(=N/[H])NCCc1ccccc1` [PHENFORMIN] was run?
Its AC50 is greater than 10 µM.

What about the AC50 [3] of the same compound?
The AC50 was greater than 30 µM.

What about the AC50 [4] of the same compound?
Its AC50 is greater than 10 µM.

What about the AC50 [5] of the same compound?
Its AC50 is greater than 30 µM.

For `CNCc1ccc(-c2[nH]c3cc(F)cc4c3c2CCNC4=O)cc1` [RUCAPARIB], which AC50 [2] is on record?
Its AC50 is 40.1 µM.

What about the AC50 [6] of the same compound?
Its AC50 is 15.6 µM.

Which AC50 [1] does the source give for `CC(C(=O)O)c1ccc(CC2CCCC2=O)cc1` (centres undefined) [LOXOPROFEN] here?
Its AC50 is greater than 30 µM.

And the AC50 [2]?
Its AC50 is greater than 30 µM.

What about the AC50 [3] of the same compound?
Its AC50 is greater than 30 µM.

What about the AC50 [4] of the same compound?
The AC50 was greater than 30 µM.

What about the AC50 [6] of the same compound?
Its AC50 is greater than 30 µM.

What about the AC50 [5] of the same compound?
Its AC50 is greater than 30 µM.

Which AC50 [1] does the source give for `CN1CCC(=C2c3ccccc3CCc3cccnc32)CC1` [AZATADINE] here?
Its AC50 is greater than 30 µM.

What about the AC50 [2] of the same compound?
Its AC50 is greater than 10 µM.

What about the AC50 [3] of the same compound?
The AC50 was greater than 10 µM.

What about the AC50 [4] of the same compound?
The AC50 was greater than 10 µM.

And the AC50 [5]?
Its AC50 is greater than 10 µM.

For `CCCC(CCC)C(N)=O` [VALPROMIDE], which AC50 [1] is on record?
The AC50 was greater than 30 µM.

And the AC50 [2]?
The AC50 was greater than 10 µM.

And the AC50 [3]?
Its AC50 is greater than 10 µM.

What about the AC50 [4] of the same compound?
Its AC50 is greater than 10 µM.

And the AC50 [5]?
The AC50 was greater than 10 µM.

`C#C[C@]1(OC(C)=O)CC[C@H]2[C@@H]3CCC4=C/C(=N/O)CC[C@@H]4[C@H]3CC[C@@]21CC` [NORGESTIMATE] was tested. Which AC50 [1] did it give?
Its AC50 is greater than 30 µM.

What about the AC50 [2] of the same compound?
Its AC50 is greater than 30 µM.

And the AC50 [3]?
The AC50 was greater than 30 µM.

What about the AC50 [4] of the same compound?
The AC50 was greater than 30 µM.

What about the AC50 [6] of the same compound?
Its AC50 is 0.02 µM.

What about the AC50 [5] of the same compound?
The AC50 was greater than 30 µM.

How did the AC50 [1] turn out when `CC12CC3CC(C)(C1)CC(N)(C3)C2` [MEMANTINE] was run?
Its AC50 is greater than 30 µM.

What about the AC50 [2] of the same compound?
Its AC50 is greater than 10 µM.

And the AC50 [3]?
Its AC50 is greater than 10 µM.

What about the AC50 [4] of the same compound?
The AC50 was greater than 10 µM.

What about the AC50 [5] of the same compound?
The AC50 was greater than 10 µM.

How did the AC50 [1] turn out when `CCC(=O)O[C@H]1CC[C@H]2[C@@H]3CCC4=CC(=O)CC[C@]4(C)[C@H]3CC[C@]12C` [TESTOSTERONE PROPIONATE] was run?
Its AC50 is greater than 30 µM.

And the AC50 [2]?
The AC50 was greater than 10 µM.

What about the AC50 [3] of the same compound?
The AC50 was greater than 10 µM.

What about the AC50 [6] of the same compound?
The AC50 was 0.328 µM.

What about the AC50 [5] of the same compound?
Its AC50 is greater than 10 µM.

For `CCCCC(=O)O[C@]1(C(=O)CO)[C@@H](C)C[C@H]2[C@@H]3CCC4=CC(=O)C=C[C@]4(C)[C@@]3(F)[C@@H](O)C[C@@]21C` [BETAMETHASONE VALERATE], which AC50 [1] is on record?
The AC50 was greater than 30 µM.

And the AC50 [2]?
Its AC50 is greater than 10 µM.

And the AC50 [3]?
The AC50 was greater than 10 µM.

And the AC50 [4]?
Its AC50 is greater than 10 µM.

And the AC50 [5]?
Its AC50 is greater than 10 µM.

What does the source list for `CC(N)C(O)c1ccccc1` (centres undefined) [PHENYLPROPANOLAMINE]?
AC50 [1]: > 30 µM; AC50 [2]: > 10 µM; AC50 [3]: > 10 µM; AC50 [4]: > 10 µM; AC50 [5]: > 10 µM

`CCOC(=O)C1=C(C)NC(C)=C(C(=O)OC)C1c1cccc([N+](=O)[O-])c1` (centres undefined) [NITRENDIPINE] was tested. Which AC50 [1] did it give?
Its AC50 is greater than 30 µM.

And the AC50 [2]?
Its AC50 is greater than 10 µM.

And the AC50 [3]?
Its AC50 is greater than 30 µM.

What about the AC50 [4] of the same compound?
The AC50 was greater than 10 µM.

And the AC50 [5]?
Its AC50 is 0.0004 µM.
